The results in this text go back to US20260365692A1, “COMPOSITIONS COMPRISING PROTEINS DISSOLVED IN FLUORINATED SOLVENTS, AND METHODS OF MAKING AND USING THE SAME” (priority 2022, published 2026).

A short description of data set [1]: Acute toxicity in C57BL/6J mice (Example 3). Conditions: 24 h. The format is in vivo. As for the experimental part: Two groups (n=5) of C57BL/6J mice received […] of 10 μM solutions of β-Gal that was either 1) prepared in sterile PBS or 2) dissolved in PFOc (1 mM PFNA) and extracted into sterile PBS. Due to the large solution volumes given (150 μL, ~15% of mouse blood volume), PFOc dispersed proteins were extracted into sterile saline before injection to avoid hyponatremia. Samples were administered by tail vein injection.
To assess acute toxicity, animals were intravenously administered solutions of β-Gal either prepared in sterile PBS or dissolved in PFOc (1 mM PFNA) and extracted into sterile PBS, as described above. After 24 hours, mice were sacrificed, and blood was collected via cardiac puncture. A minimum of 100 μL of whole blood was added to EDTA for complete blood count. The remainder was centrifuged (1000 rcf, 10 minutes) to isolate serum for chemistry analysis. Tissues (lungs, livers, kidneys, and spleens) from euthanized animals were collected and stored in 10% buffered-formalin immediately after euthanasia. […] from each organ were mounted onto glass slides and stained with Hematoxylin and Eosin (H&E). Four random fields in each section were examined under a microscope at 5× and 40× magnification. Tissue relevant clinical features were compared across samples. […]

Data set [2] can be described thus: Temperature-dependent circular dichroism of proteins in PFOc or PBS (Example 4). It counts as physicochemical. Particulars: dispersed in PFOc using PD-7, heated up to 85 °C. As for the experimental part: FIGS. 39A-39B depict temperature-dependent CD spectra of the indicated test protein solubilized in PFOc using the PD-7 dispersant, or PBS as a control.
FIG. 40 depicts the change in minimum CD ellipticity over the 40 °C-85 °C temperature interval for the indicated protein dissolved in either PBS or PFOc.
To determine structural integrity of proteins in aqueous and fluorinated environments at elevated temperatures, circular dichroism (CD) was used to probe secondary structure. Proteins were either diluted in PBS (aqueous) or dispersed in PFOc at the same designated concentrations according to protocol described above. For aqueous samples, dissolved proteins were heated between 40 °C to 90 °C, and their corresponding CD spectra at each temperature was measured. For PFOc samples, each of the PFOc dispersed proteins were subjected to heat treatment at 40, 55, 70, and 85 °C for 15 minutes. After that, dispersed proteins were eluted into PBS before having their CD spectra taken. Data is shown by representative ellipticity at each temperature depicted by distinct colors.
(In general: CD spectra are sensitive to the conformation of chiral molecules.)

The subject of another data set is A549 cells. Nature of the data set: Annexin V/propidium iodide co-staining of A549 cells. The format is cell-based, human. Conditions: PFNA. As for the experimental part: FIGS. 20A-20D depicts annexin-V/PI co-staining of A549 cells treated without or with PFNA at 2 and 24 hours. FIGS. 20A-20C: Flow cytometry scatter plots. FIG. 20D: quadrant data comparing the population of unaffected cells (native), to cells displaying lipid translocation (Lip. Tran.) membrane permeabilization (Mem. Perm.), or both.
The ability of PFNA to modulate protein uptake may be explained by the reported anchorage of fluorinated amphiphiles within cell membranes to alter lipid bilayer fluidity and liquid-crystalline phase transitions. To test this assertion, and inform the interpretation of the protein uptake results, the annexin V (AV)/propidium iodide (PI) assay, commonly used to study apoptosis, was repurposed to explore membrane dynamics following PFNA exposure (FIGS. 20A-20D). Here, AV bound phosphatidylserine lipids exposed via inner-to-outer leaflet translocation, while PI positively labeled cells with permeabilized membranes. Comparing dye uptake at early (2 hour) and late (24 hour) PFNA exposure times allowed interpretation of lipid translocation (AV^+, PI^−), membrane permeabilization (AV^−, PI^+), both (AV^+, PI^+), or neither (AV^−, PI^−). […]

A further data set has as its system tested proteins. Nature of the data set: Induction of non-native protein secondary structure. As for the experimental part:
To explore PFNA-mediated changes in protein structure, dose-response circular dichroism (CD) studies were performed (FIG. 14A-14G). […] Remarkably, these structural changes endured even at sub-stoichiometric PFNA:protein ratios (see 0.001 mM PFNA in […]; protein concentration was constant at 0.01 mM).
Prior studies have shown ≥15 vol % of TFE in water, which represents a 2M total concentration, was required to induce protein structural transitions. […] In addition, PFNA appeared to favor modulation of […] structures over α-helices, which can be interpreted by monitoring changes in both ellipticity at 216 nm (FIG. 14H) and percentage of secondary structural motifs (FIG. 14I) relative to the native protein. […] The dose-dependent reduction in the signal after analyte injection may have been due to conformational change of the target protein, as has been observed in prior studies.

The target in the next data set is BSA (Bos taurus, UniProt P02769). The data set is described as follows: Isothermal titration calorimetry, BSA. It counts as binding, bovine. An excerpt:
(§1) To test this assertion, PFNA binding to three exemplary proteins, BSA, β-Gal and IgG, was studied via isothermal titration calorimetry (ITC) and surface plasmon resonance (SPR) techniques. […] SPR analysis yielded similar results, with sensorgrams (FIGS. 14J-14L) that diverged from a simple 1:1 ligand-protein model. […] Similar phenomenon may explain the negative signals of the SPR data and further support the ability of PFNA to modulate the conformational plasticity of adsorbed proteins.

The next data set concerns β-gal. Nature of the data set: Isothermal titration calorimetry, β-Gal. It counts as binding.
Text: as §1

Another data set has as its target TFN (Bos taurus, UniProt Q29443). Nature of the data set: 19F NMR of PFNA with TFN. It counts as binding, bovine. The text has this: This further supported the conclusion that, like TFE, adsorption of PFNA to protein surfaces aligned the fluorinated tail parallel to the solvent accessible exterior, with further stabilization via F . . . H bonding with surface N—H groups (FIG. 12, FIGS. 12A-12E, and FIG. 13). This ultimately generated the fluorine rich coating that altered water accessibility and promoted secondary structure.

BSA, sequence (P02769 25-607): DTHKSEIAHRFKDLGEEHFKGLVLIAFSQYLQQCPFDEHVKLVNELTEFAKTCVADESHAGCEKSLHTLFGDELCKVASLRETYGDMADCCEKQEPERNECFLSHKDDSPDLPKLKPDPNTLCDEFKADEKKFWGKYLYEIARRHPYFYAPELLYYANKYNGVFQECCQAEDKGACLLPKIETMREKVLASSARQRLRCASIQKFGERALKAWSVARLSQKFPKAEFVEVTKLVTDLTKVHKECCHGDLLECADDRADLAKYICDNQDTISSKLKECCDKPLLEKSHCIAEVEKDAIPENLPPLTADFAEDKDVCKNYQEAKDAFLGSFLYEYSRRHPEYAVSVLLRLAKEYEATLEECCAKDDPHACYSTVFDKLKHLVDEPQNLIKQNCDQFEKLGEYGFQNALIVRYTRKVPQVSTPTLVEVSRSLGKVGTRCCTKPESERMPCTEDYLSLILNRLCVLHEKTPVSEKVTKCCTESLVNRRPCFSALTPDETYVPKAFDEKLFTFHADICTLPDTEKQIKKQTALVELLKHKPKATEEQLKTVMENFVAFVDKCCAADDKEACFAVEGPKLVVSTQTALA
TFN, sequence (Q29443 20-704): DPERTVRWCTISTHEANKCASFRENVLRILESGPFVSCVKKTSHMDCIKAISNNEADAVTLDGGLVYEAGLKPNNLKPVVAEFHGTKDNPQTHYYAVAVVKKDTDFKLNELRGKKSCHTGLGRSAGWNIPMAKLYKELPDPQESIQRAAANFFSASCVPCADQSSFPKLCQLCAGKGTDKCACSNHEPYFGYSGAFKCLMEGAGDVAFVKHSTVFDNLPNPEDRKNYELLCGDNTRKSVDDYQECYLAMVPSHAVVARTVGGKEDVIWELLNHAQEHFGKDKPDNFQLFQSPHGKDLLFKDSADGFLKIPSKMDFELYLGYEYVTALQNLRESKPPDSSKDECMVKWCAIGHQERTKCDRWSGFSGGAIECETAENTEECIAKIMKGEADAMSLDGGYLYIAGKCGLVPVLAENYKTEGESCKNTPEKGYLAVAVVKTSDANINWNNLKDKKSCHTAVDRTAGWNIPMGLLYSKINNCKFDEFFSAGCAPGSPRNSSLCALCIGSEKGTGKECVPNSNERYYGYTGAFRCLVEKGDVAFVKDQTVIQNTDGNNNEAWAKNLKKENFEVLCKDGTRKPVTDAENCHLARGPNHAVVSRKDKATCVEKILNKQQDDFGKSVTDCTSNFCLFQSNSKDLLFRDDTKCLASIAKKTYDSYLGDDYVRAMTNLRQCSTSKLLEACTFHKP

Take “β-Gal: β-Galactosidase (β-Gal), dissolved in PBS/saline or dispersed in PFOc”: the “BUN, RBC, HGB, HCT versus sham saline injection control” value in data set [1] (PFOc β-Gal, i.v.) is recorded as “none of these markers were statistically different”. In data set [1] (lung, kidney, liver, spleen, β-Gal from PFOc), the histologic organ analyses result was “did not identify signs of necrosis, cellular infiltration, inflammation, or hemorrhage”. Besides, in data set [2], the “change in secondary structure” value is given as “minimal changes in secondary structure”.
For the molecule `O=C(O)C(F)(F)C(F)(F)C(F)(F)C(F)(F)C(F)(F)C(F)(F)C(F)(F)C(F)(F)F` [Compound 7, perfluoronanonic acid], the “lipid translocation (AV+, PI−)” value with A549 cells (2 hours) was “elevated”. For the same molecule, in the data set with A549 cells (24 hours), the “lipid translocation and membrane permeability (AV+, PI+)” value was “increased”. The “concentration sufficient to induce ordered non-native structure” value in the data set with tested proteins (many of the tested proteins) was 0.001 mM. In addition, in the data set on tested proteins (relative to trifluoroethanol), the “increase in potency in inducing non-native protein secondary structure relative to TFE” value was 10^6. Further, the “evolution of heat (ITC)” value at BSA and in the data set on β-gal was “no significant evolution of heat” in each case. Also, on TFN, the “19F NMR peak change upon interaction” value is on record as “broadening of PFNA's peaks”.
